Assay results from paper PMC7763995 (Molecules, 2020).
Read-outs that look alike come from different tables or passages of the source.

Columns and labels:
[1] = FRAP (ferric reducing antioxidant power) assay; settings: 20 µM, 1 h incubation; ratio of concentrations of Trolox and test compound with same effect
Procedure: The FRAP (ferric reducing antioxidant power) assay proposed by Benzie and Strain [80, 81] was modified to be performed in 96-well microplates. The FRAP reagent contained 2.5 mL of 10 mM TPTZ (2,4,6-tris(2-pyridyl)-s-triazine (Sigma-Aldrich) solution in 40 mM HCl, 2.5 mL of 20 mM FeCl3 (Sigma-Aldrich) in distilled water and 25 mL of 0.3 M acetate buffer (pH 3.6). In 96-well microplates, 10 µL aliquots of the substance under investigation (compounds 7, 8 or reference substance) dissolved in DMSO (0.5 mM) were placed in quadruplicate. The FRAP reagent (240 µL) freshly prepared and warmed to 37°C was added to three of these samples, while the same volume of acetate buffer was added to the fourth one (blank). Consequently, the concentration of the substance in a plate was 20 µM. The absorbance at 600 nm was monitored spectrophotometrically with a FLUOStar OPTIMA microplate reader at 37°C for an hour with an interval of 5–10 min. Data in Table 2 are given for 1 h of incubation of compounds with FRAP reagent. The absorbances of the blanks and those of the mixture of 240 µL FRAP reagent plus 10 µL DMSO were subtracted from the absorbances of the samples at each time interval to calculate the absorbance change. Standard antioxidants Trolox and BHT dissolved in DMSO and analyzed as described above were used as reference compounds. A calibration curve with linear formula y = 0.03x (R^2 = 0.998, p < 0.0001) was obtained for Trolox solution in DMSO in the range 2.5–100 µM and the results were expressed as FRAP units (the values calculated as the ratio of the concentrations of Trolox and the test compound resulting in the same effect.)

[2] = ABTS radical cation scavenging activity assay; settings: for IC50 / ABTS^•+-Scavenging Activity, TEAC: 1 h incubation; for ABTS^•+-Scavenging Activity, TEAC: ratio of slopes test compound/Trolox
Procedure: Radical scavenging activity of the compounds was assessed using the ABTS radical decolorization assay with some modifications. ABTS was purchased from Tokyo Chemical Industry Co., Ltd. (Tokyo, Japan), potassium persulfate (dipotassium peroxodisulfate), Trolox (6-hydroxy-2,5,7,8-tetramethychroman-2-carboxylic acid), and HPLC-grade ethanol were obtained from Sigma-Aldrich. Aqueous solutions were prepared using deionized water.
The solution of cation radical ABTS^•+ was produced by incubation of ABTS with potassium persulfate in deionized water for 12–16 h at room temperature in the dark. Radical scavenging capacity of the compounds was analyzed by mixing 10 μL of compound with 240 μL of ABTS^•+ working solution in ethanol (100 μM final concentration). The reaction was monitored for an hour with an interval of 5–10 min. Data are given for 1 h of incubation of compounds with ABTS^•+. The reduction in absorbance was measured spectrophotometrically at 734 nm using a xMark microplate UV/VIS microplate spectrophotometer (Bio-Rad, Hercules, CA, USA).
Ethanol blanks were run in each assay. Values were obtained from three replicates of each sample and three independent experiments. Standard antioxidants Trolox and BHT were used as reference compounds.
Antioxidant capacity as Trolox equivalent (TEAC) values was determined as the ratio between the slopes obtained from the linear correlation of the ABTS radical absorbance with the concentrations of tested compounds and Trolox. […] The compounds were tested in the concentration range of 0.1–100 µM.

[3] = system: mouse brain homogenate; experiment: TBARS assay, spontaneous lipid peroxidation in mouse brain homogenate; settings: read-out: Inhibition of Spontaneous Lipid Peroxidation in Mice Brain Homogenate, TBARS Assay, IC50
Procedure: (§1) The work was carried out in accordance with the EU Directive 2010/63/EU. Hybrid BDF1 mice (about 6 months old) were sacrificed by decapitation. Each brain was rapidly excised, frozen in liquid nitrogen, and stored at −80°C until use. The brains were thawed and homogenized using a Wisd WiseTis HG-15D homogenizer for 2 min in a buffer (0.01 M PBS, pH 7.4 or 0.1 M Tris-HCl, pH 7.4). Protein concentrations were determined by the Lowry method.
The procedure was performed in accordance with the method of Ohkawa et al. with minor modifications. Briefly, mouse brain homogenate (protein concentration 1 mg/mL) in PBS (0.1 M, pH 7.4) was incubated for 30 min at 37°C with tested conjugates, and the reaction was terminated by addition of 0.4 mL of 17% (w/v) trichloroacetic acid (Sigma-Aldrich). Following centrifugation for 20 min at 1300× g, 0.5 mL of 0.8% (w/v) of TBA (Sigma-Aldrich) was added to 1 mL of supernatant, heated for 30 min at 95°C and then cooled to RT. The optical density of the TBARS, which corresponds to the produced MDA, was measured at 532 nm against a blank using an Agilent Cary 60 UV-Vis spectrophotometer (Agilent, Santa Clara, CA, USA). The MDA concentration was calculated using an extinction coefficient of 1.56 × 10^5 M^−1cm^−1. Trolox and BHT were used as reference antioxidants. Compounds were dissolved in DMSO (Sigma-Aldrich) and tested in a concentration range 0.01–100 μM. All compounds were examined at least in triplicate.

[4] = system: mouse brain homogenate; experiment: Luminol chemiluminescence assay in mouse brain homogenate (TBHP-initiated); settings: compound concentration 20 µM; mice brain homogenate
Procedure: as §1
Luminol-dependent chemiluminescence produced by mouse brain homogenates was measured using a 1250 Luminometer (LKB Wallac, Turku, Finland) according to the assay by Di Meo et al. with minor modifications. The reaction mixture consisted of mouse brain homogenate (protein concentration 0.1 mg/mL) in 0.1 M Tris-HCl (Sigma-Aldrich), pH 7.4, luminol (Sigma-Aldrich) (0.05 mM), TBHP (Sigma-Aldrich) (0.073 M) and tested compounds at a concentration of 20 μM. This was placed in a light-proof luminometer chamber and the background reading was recorded. All measurements were carried out at 37°C. The gain control was set to give a reading of 10 mV using a built-in standard. The free radical content in mouse brain homogenate was evaluated by the change in the light sum (the area under the kinetic curve of luminescence intensity for the entire luminescence time). All compounds were examined at least in triplicate. The effects of tested compounds were measured as the percentage decrease in the light sum relative to the control (a sample with no compound added).

[5] = system: Porcine liver CES; experiment: In vitro CES inhibition, 4-NPA substrate; assay type: biochemical; settings: compound concentration 20 µM; n.a. = not active
Procedure: (§2) Measurements were performed with a FLUOStar Optima microplate reader (BMG Labtech, Ortenberg, Germany). Compounds were dissolved in DMSO, the incubation mixture contained 2% solvent.

[6] = target: T1, EeAChE PAS (Electrophorus electricus, UniProt O42275); assay type: binding; settings: compound concentration 20 µM
T1 construct: Electric eel AChE (EeAChE, type VI-S, lyophilized powder); purchased Sigma-Aldrich type VI-S; host or cells: electric eel
Procedure: Electric eel AChE (EeAChE, type VI-S, lyophilized powder, Sigma-Aldrich, Saint Louis, MO, USA) was used owing to its high degree of purification, high activity, and lower cost compared to human AChE.
The blank contained propidium iodide of the same concentration in 1 mM Tris-HCl buffer pH 8.0. The measurements were carried out in triplicate on a FLUOStar Optima microplate reader, and the results were calculated by formula (1):% Displacement = 100 − (IFAChE+ Propidium + inhibitor / IFAChE + Propidium) × 100(1) where IFAChE + Propidium is the fluorescence intensity of the propidium associated with AChE in the absence of the test compound (taken as 100%), and IFAChE + Propidium + inhibitor is the fluorescence intensity of the propidium associated with AChE in the presence of the test compound.

[7] = target: T2, Equine serum BChE (Equus caballus, UniProt P81908); experiment: biochemical; settings: for Selectivity for BChE: IC50 AChE / IC50 BChE
T2 construct: equine serum BChE; purchased Sigma-Aldrich; host or cells: equine serum
Procedure: as §2

[8] = target: T3, Human erythrocyte AChE (Homo sapiens, UniProt P22303); experiment: biochemical
T3 construct: AChE from human erythrocytes was used; purchased Sigma-Aldrich; host or cells: human erythrocytes
Procedure: as §2

[9] = system: AChE; design: method as in PMID 15658850; settings: read-out: anti-AChE activity, IC50; cited from earlier work
[10] = system: AChE-induced Aβ aggregation; design: method as in PMID 15658850; settings: cited from earlier work
[11] = mean ± SEM, n = 3, n.a. = not active, read-out: Equine Serum BChE, IC50
[12] = mean ± SEM, n = 3, n.a. = not active, read-out: Human Erythrocyte AChE, IC50

T3 sequence (P22303 32-617 isoform P22303-2 limits assumed): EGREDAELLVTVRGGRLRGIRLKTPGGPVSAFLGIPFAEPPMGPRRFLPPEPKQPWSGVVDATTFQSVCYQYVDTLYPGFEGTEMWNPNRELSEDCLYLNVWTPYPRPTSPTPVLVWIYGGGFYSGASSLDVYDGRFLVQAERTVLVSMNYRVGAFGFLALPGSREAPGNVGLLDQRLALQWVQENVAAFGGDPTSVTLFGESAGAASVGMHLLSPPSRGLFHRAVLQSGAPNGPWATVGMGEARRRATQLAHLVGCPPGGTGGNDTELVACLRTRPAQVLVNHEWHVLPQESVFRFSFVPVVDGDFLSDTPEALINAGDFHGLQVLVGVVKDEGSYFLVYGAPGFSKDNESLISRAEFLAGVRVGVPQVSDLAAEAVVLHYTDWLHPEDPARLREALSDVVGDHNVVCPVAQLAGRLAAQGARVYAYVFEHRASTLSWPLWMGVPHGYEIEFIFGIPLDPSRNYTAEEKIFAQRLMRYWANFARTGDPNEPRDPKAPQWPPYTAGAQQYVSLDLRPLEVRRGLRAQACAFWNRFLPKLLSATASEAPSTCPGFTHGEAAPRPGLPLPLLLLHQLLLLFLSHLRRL
T1 sequence (O42275 24-633): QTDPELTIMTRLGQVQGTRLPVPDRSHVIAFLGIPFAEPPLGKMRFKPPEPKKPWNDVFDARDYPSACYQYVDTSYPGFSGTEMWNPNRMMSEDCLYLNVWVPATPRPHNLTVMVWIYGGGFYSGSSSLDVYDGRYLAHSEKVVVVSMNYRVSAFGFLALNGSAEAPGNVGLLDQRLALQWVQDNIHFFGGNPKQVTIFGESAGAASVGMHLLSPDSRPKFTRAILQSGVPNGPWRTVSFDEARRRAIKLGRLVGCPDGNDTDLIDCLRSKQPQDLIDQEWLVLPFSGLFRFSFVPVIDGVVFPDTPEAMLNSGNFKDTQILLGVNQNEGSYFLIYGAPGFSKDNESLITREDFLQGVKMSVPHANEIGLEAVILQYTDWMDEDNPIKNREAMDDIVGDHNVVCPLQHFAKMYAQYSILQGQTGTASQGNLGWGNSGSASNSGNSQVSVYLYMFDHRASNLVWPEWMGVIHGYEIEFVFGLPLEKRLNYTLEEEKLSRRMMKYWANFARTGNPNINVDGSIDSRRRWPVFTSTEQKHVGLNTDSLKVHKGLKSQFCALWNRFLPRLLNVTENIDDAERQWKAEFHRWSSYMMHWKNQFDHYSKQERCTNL
T2 sequence (P81908 whole entry): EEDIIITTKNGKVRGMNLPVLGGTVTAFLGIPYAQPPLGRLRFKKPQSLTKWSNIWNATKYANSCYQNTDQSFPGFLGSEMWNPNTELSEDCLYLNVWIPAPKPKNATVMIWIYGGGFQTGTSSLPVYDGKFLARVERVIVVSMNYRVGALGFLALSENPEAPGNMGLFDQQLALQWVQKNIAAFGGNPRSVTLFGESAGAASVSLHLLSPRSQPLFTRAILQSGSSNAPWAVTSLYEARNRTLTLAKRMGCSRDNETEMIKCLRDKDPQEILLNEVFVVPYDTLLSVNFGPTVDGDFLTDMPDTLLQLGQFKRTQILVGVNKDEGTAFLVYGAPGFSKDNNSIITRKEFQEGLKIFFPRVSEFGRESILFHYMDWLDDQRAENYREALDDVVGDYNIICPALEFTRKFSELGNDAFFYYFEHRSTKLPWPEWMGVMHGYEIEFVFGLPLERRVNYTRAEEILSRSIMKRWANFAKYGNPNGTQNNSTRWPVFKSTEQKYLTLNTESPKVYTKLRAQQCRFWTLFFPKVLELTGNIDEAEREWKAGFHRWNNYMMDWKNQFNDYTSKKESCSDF

| Structure (SMILES) | Ferric Reducing Antioxidant Power, FRAP Units [1] | IC50 [2] | ABTS^•+-Scavenging Activity, TEAC [2] | IC50 [3] | Radical Scavenging Capacity in Luminol Chemiluminescence Assay, Luminescence Inhibition, % [4] | Porcine Liver CES, (%) inhibition [5] | Displacement of Propidium from EeAChE PAS (%) [6] | Selectivity for BChE [7] | IC50 [7, 11] | IC50 [8, 12] | Time of maximum binding of the ABTS radical [2] | IC50 [7] | IC50 [8] | IC50 [9] | IC50 [10] |
| --- | --- | --- | --- | --- | --- | --- | --- | --- | --- | --- | --- | --- | --- | --- | --- |
| Cc1cc(C(C)(C)C)c(O)c(C(C)(C)C)c1 [BHT, butylated hydroxytoluene, reference compound] | 1.76 ± 0.07 | 22.4 ± 1.4 µM | 0.98 ± 0.03 | 6.89 ± 0.26 µM | 72.0 ± 2.6% | – | – | – | – | – | – | – | – | – | – |
| O=[N+]([O-])c1ccc(OP(=O)(O)Oc2ccc([N+](=O)[O-])cc2)cc1 [BNPP, bis-4-nitrophenyl phosphate, reference compound] | – | – | – | – | – | 92.1 ± 1.8 ^3% | – | – | – | – | – | – | – | – | – |
| CC(C)(C)c1cc(C=NCCNc2c3c(nc4ccccc24)CCC3)cc(C(C)(C)C)c1O [Compound 7a, 2,6-Di-tert-butyl-4-{[2-(2,3-dihydro-1H-cyclopenta[b]quinolin-9-ylamino)-ethylimino]-methyl}-phenol] | 0.51 ± 0.03 | 22.3 ± 1.5 µM | – | 19.6 ± 0.8 µM | 94.0 ± 0.2% | 26.1 ± 0.7% | 18.1 ± 1.6% | 2.5 | 1.92 ± 0.11 µM | 4.86 ± 0.01 µM | – | – | – | – | – |
| CC(C)(C)c1cc(C=NCCNc2c3c(nc4ccccc24)CCCC3)cc(C(C)(C)C)c1O [Compound 7b, 2,6-Di-tert-butyl-4-{[2-(1,2,3,4-tetrahydro-acridin-9-ylamino)-ethylimino]-methyl}-phenol] | 0.58 ± 0.03 | 17.1 ± 1.4 µM | 1.13 ± 0.05 | 7.21 ± 0.62 µM | 95.0 ± 0.2% | 28.6 ± 1.6% | 18.2 ± 1.6% | 3.7 | 1.61 ± 0.04 µM | 5.98 ± 0.13 µM | – | – | – | – | – |
| CC(C)(C)c1cc(C=NCCNc2c3c(nc4ccccc24)CCCCCC3)cc(C(C)(C)C)c1O [Compound 7d, 2,6-Di-tert-butyl-4-{[2-(6,7,8,9,10,11-hexahydro-cycloocta[b]quinolin-12-ylamino)-ethylimino]-methyl}-phenol] | 0.57 ± 0.02 | 17.8 ± 1.7 µM | 1.12 ± 0.05 | 14.8 ± 1.3 µM | 95.0 ± 0.2% | 20.4 ± 1.6% | 17.1 ± 1.8% | 10.5 | 4.27 ± 0.26 µM | 45 ± 5.7 µM | – | – | – | – | – |
| CC(C)(C)c1cc(CNCCNc2c3c(nc4ccccc24)CCC3)cc(C(C)(C)C)c1O [Compound 8a, 2,6-Di-tert-butyl-4-{[2-(2,3-dihydro-1H-cyclopenta[b]quinolin-9-ylamino)-ethylamino]-methyl}-phenol] | 0.77 ± 0.02 | 12.7 ± 1.1 µM | 1.39 ± 0.05 | 6.23 ± 0.33 µM | 95.0 ± 0.1% | 19.6 ± 1.3% | 16.4 ± 1.4% | 5.4 | – | – | 5 min | 0.652 ± 0.005 µM | 3.5 ± 0.33 µM | – | – |
| CC(C)(C)c1cc(CNCCNc2c3c(nc4ccccc24)CCCCC3)cc(C(C)(C)C)c1O [Compound 8c, 2,6-Di-tert-butyl-4-{[2-(7,8,9,10-tetrahydro-6H-cyclohepta[b]quinolin-11-ylamino)-ethylamino]-methyl}-phenol] | 0.80 ± 0.06 | 14.1 ± 0.8 µM | 1.35 ± 0.04 | 9.38 ± 0.12 µM | 91.0 ± 0.6% | 26.0 ± 1.9% | 13.6 ± 1.2% | – | – | – | 5 min | 0.084 ± 0.008 µM | 1.9 ± 0.16 µM | – | – |
| Cc1c(C)c2c(c(C)c1O)CCC(C)(C(=O)O)O2 (stereo not drawn) [Trolox, 6-hydroxy-2,5,7,8-tetramethychroman-2-carboxylic acid, reference compound] | 1.0 | 20.1 ± 1.2 µM | 1.0 | 91.8 ± 0.3 µM | 88.0 ± 1.0% | – | – | – | – | – | – | – | – | – | – |
| O=C(CCCCC1CCSS1)NCCCNc1c2c(nc3cc(Cl)ccc13)CCCC2 (stereo not drawn) [lipocrine] | – | – | – | – | – | – | – | – | – | – | – | – | – | 0.000253 µM | 45 µM |
